Assay results reported in ChEMBL document CHEMBL1146819, “Synthesis and SAR of 2-arylbenzoxazoles, benzothiazoles and benzimidazoles as inhibitors of lysophosphatidic acid acyltransferase-beta” (Bioorg Med Chem Lett, 2004).
Active and inactive are the calls of the source.

How the values were obtained:
[1] = target: T1, 1-acyl-sn-glycerol-3-phosphate acyltransferase alpha (Homo sapiens) (UniProt Q99943); test: Inhibitory activity against human lysophosphatidic acid acyltransferase-alpha (LPAAT-alpha) expressed in Sf9 insect cell membranes at <20 uM; Not active
T1 sequence (whole entry): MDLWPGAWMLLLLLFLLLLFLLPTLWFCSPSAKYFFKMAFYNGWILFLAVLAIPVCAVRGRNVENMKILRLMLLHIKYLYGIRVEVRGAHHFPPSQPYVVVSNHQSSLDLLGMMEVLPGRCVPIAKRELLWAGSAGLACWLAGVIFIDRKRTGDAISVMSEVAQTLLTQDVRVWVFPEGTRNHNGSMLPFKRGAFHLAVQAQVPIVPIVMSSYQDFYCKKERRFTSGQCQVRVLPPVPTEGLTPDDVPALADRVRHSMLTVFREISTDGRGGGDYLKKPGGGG

[2] = target: T2, 1-acyl-sn-glycerol-3-phosphate acyltransferase beta (Homo sapiens, UniProt O15120); test: Inhibitory concentration against human lysophosphatidic acid acyltransferase-beta (LPAAT-beta) expressed in Sf9 insect cell membranes
T2 sequence (O15120 whole entry): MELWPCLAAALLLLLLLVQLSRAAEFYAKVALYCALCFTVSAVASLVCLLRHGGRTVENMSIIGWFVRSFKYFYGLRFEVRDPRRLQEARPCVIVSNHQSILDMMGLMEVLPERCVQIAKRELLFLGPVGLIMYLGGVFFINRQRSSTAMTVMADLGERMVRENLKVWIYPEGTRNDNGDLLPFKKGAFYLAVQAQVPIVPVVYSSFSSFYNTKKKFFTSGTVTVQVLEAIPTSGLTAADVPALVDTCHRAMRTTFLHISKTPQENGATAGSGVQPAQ

MCF7 [3] = test: In vitro inhibitory concentration of compound against proliferation of MCF-7 breast carcinoma cells; assay type: functional, cell-based; conditions: Homo sapiens
DU-145 = test: In vitro inhibitory concentration of compound against proliferation of DU145 prostate carcinoma cells; assay type: functional, cell-based; conditions: Homo sapiens
MCF7 [4] = test: In vitro inhibitory concentration of compound against proliferation of MCF-7 breast carcinoma cells; Range is 30-40 uM; assay type: functional, cell-based; conditions: Homo sapiens

Row | Structure (SMILES) | Activity [1] | IC50 [2] [nM] | IC50 (MCF7 [3]) [nM] | IC50 (DU-145) [nM] | IC50 (MCF7 [4]) [nM]
1 | C#CCOC(=O)Nc1ccc(Cl)c(-c2nc3cc(C)ccc3o2)c1 | inactive |  |  |  | 
2 | C#CCOC(=O)Nc1ccc(Cl)c(-c2nc3ccccc3o2)c1 | inactive |  | 20000 | 50000 | 
3 | CN(C)CC(=O)Nc1ccc(Cl)c(-c2nc3cc(Cl)ccc3o2)c1 | inactive | > 5000 |  |  | 
4 | COC(=O)Nc1ccc(Cl)c(-c2nc3ccc(C)cc3o2)c1 | inactive | 400 |  |  | 
5 | COC(=O)Nc1ccc(C)c(-c2nc3cc(C)ccc3o2)c1 | inactive |  |  |  | 
6 | COC(=O)Nc1ccc(Cl)c(-c2nc3ccccc3o2)c1 | inactive |  |  |  | 
7 | C#CCOC(=O)Nc1ccc(Cl)c(-c2nc3cc(C(F)(F)F)ccc3s2)c1 | inactive |  |  | 20000 | 40000
8 | COC(=O)Nc1ccc(Cl)c(-c2nc3c(C)cccc3o2)c1 | inactive | 500 |  |  | 
9 | COC(=O)Nc1ccc(OC)c(-c2nc3cc(C)ccc3o2)c1 | inactive | 64000 |  |  | 
10 | C#CCCOC(=O)Nc1ccc(Cl)c(-c2nc3cc(Cl)ccc3o2)c1 | inactive | 75 |  |  | 
11 | Cn1c(-c2cc(NC(=O)CC#N)ccc2Cl)nc2cc(Cl)ccc21 | inactive | 300 |  |  | 
12 | COC(=O)Nc1ccc(Cl)c(-c2nc3cc(C(F)(F)F)ccc3o2)c1 | inactive | 800 |  |  | 
13 | C#CCOC(=O)Nc1ccc(Cl)c(-c2nc3cc(C(F)(F)F)ccc3n2C)c1 | inactive | 120 |  |  | 
14 | N#CCC(=O)Nc1ccc(Cl)c(-c2nc3cc(C(F)(F)F)ccc3s2)c1 | inactive | 50 |  |  | 
15 | CC#CCOC(=O)Nc1ccc(Cl)c(-c2nc3cc(Cl)ccc3o2)c1 | inactive | 75 |  |  | 
16 | COC(=O)Nc1ccc(Cl)c(-c2nc3cc(Cl)ccc3n2C)c1 | inactive | 650 |  |  | 
17 | COC(=O)Nc1ccc(Cl)c(-c2nc3cc(C(=O)O)ccc3o2)c1 | inactive | > 20000 |  |  | 
18 | COC(=O)Nc1cccc(-c2nc3cc(C)ccc3o2)c1 | inactive | > 64000 |  |  | 
19 | CC(=O)Nc1ccc(Cl)c(-c2nc3cc(C)ccc3o2)c1 | inactive | 2500 |  |  | 
20 | CCCOC(=O)Nc1ccc(Cl)c(-c2nc3cc(C)ccc3o2)c1 | inactive | 12000 |  |  | 

Row | Structure (SMILES) | Activity [1] | IC50 [2] [nM] | IC50 (MCF7 [3]) [nM] | IC50 (DU-145) [nM] | IC50 (MCF7 [4]) [nM]
21 | COC(=O)Nc1ccc(Cl)c(-c2nc3ccc(C)cc3n2C)c1 | inactive | > 20000 |  |  | 
22 | Cc1ccc2oc(-c3cc(NC(=O)OC(C)C)ccc3Cl)nc2c1 | inactive | 16000 |  |  | 
23 | C#CCOC(=O)Nc1ccc(C)c(-c2nc3cc(Cl)ccc3o2)c1 | inactive | 100 |  |  | 
24 | C#CCOC(=O)Nc1ccc(Cl)c(-c2nc3cc(Cl)ccc3n2C)c1 | inactive |  |  |  | 
25 | CCC(=O)Nc1ccc(Cl)c(-c2nc3cc(C)ccc3o2)c1 | inactive | 1500 | 40000 | 40000 | 
26 | C#CCCC(=O)Nc1ccc(Cl)c(-c2nc3cc(Cl)ccc3o2)c1 | inactive | 100 |  |  | 
27 | COC(=O)Nc1ccc(Cl)c(-c2nc3cc(C(F)(F)F)ccc3s2)c1 | inactive |  |  |  | 
28 | CNCC(=O)Nc1ccc(Cl)c(-c2nc3cc(Cl)ccc3o2)c1 | inactive | > 5000 |  |  | 
29 | C#CCOC(=O)Nc1ccc(Cl)c(-c2nc3cc(C(F)(F)F)ccc3[nH]2)c1 | inactive | 5200 |  |  | 
30 | CC#CC(=O)Nc1ccc(Cl)c(-c2nc3cc(C)ccc3o2)c1 | inactive | > 20000 |  |  | 
31 | COC(=O)Nc1ccc(Cl)c(-c2nc3cc(O)ccc3o2)c1 | inactive | > 20000 |  |  | 
32 | C#CCOC(=O)Nc1ccc(Cl)c(-c2nc3cc(Cl)ccc3o2)c1 | inactive |  | 15000 | 50000 | 
33 | Cc1ccc2oc(-c3cc(NC(=O)CC#N)ccc3Cl)nc2c1 | inactive | 100 |  |  | 
34 | CCCC(=O)Nc1ccc(Cl)c(-c2nc3cc(C)ccc3o2)c1 | inactive | 2500 |  |  | 
35 | N#CCC(=O)Nc1ccc(Cl)c(-c2nc3cc(Cl)ccc3s2)c1 | inactive |  |  |  | 
36 | Cc1ccc2oc(-c3cc(NCCCC#N)ccc3Cl)nc2c1 |  | > 5000 |  |  | 
37 | Cc1ccc2oc(-c3cc(NC(=O)CN=[N+]=[N-])ccc3Cl)nc2c1 | inactive | 600 |  |  | 
38 | C#CCCC(=O)Nc1ccc(Cl)c(-c2nc3cc(C)ccc3o2)c1 | inactive | 500 |  |  | 
39 | COC(=O)Nc1ccc(F)c(-c2nc3cc(C)ccc3o2)c1 | inactive | > 64000 |  |  | 

Next, values leading:

Row | Activity [1] | IC50 [2] [nM] | IC50 (MCF7 [3]) [nM] | IC50 (DU-145) [nM] | IC50 (MCF7 [4]) [nM] | Structure (SMILES)
40 | inactive |  |  |  |  | C#CCOC(=O)Nc1ccc(Cl)c(-c2nc3c(C)cccc3o2)c1
41 | inactive | 40000 |  |  |  | Cc1ccc2oc(-c3cc(NC(=O)c4ccccc4)ccc3Cl)nc2c1
42 | inactive | 2000 |  |  |  | C#CCOC(=O)Nc1ccc(Cl)c(-c2nc3cc(O)ccc3o2)c1
43 | inactive |  |  |  |  | C#CCOC(=O)Nc1ccc(Cl)c(-c2nc3cc(C(F)(F)F)ccc3o2)c1
44 | inactive | > 20000 |  |  |  | CC#CC(=O)Nc1ccc(Cl)c(-c2nc3cc(Cl)ccc3o2)c1
45 | inactive | 15 |  |  |  | C#CCOC(=O)Nc1ccc(C)c(-c2nc3cc(Cl)ccc3s2)c1
46 | inactive | 170 |  |  |  | [N-]=[N+]=NCC(=O)Nc1ccc(Cl)c(-c2nc3cc(Cl)ccc3o2)c1
47 | inactive | 950 |  |  |  | CNC(=O)Nc1ccc(Cl)c(-c2nc3cc(Cl)ccc3o2)c1
48 |  | > 40000 |  |  |  | Cc1cc(-c2nc3ccccc3s2)ccc1N
49 | inactive |  | > 50000 | > 50000 |  | C#CCOC(=O)Nc1ccc(Cl)c(-c2nc3cc(Cl)ccc3s2)c1
50 | inactive | 9000 |  |  |  | COC(=O)Nc1ccc(Cl)c(-c2nc3c(C)cccc3s2)c1
51 | inactive | 550 |  |  |  | COC(=O)Nc1ccc(C)c(-c2nc3cc(Cl)ccc3o2)c1
52 | inactive | 31000 |  |  |  | Cc1ccc2oc(-c3cc(NC(=O)CO)ccc3Cl)nc2c1
53 | inactive | 11000 |  |  |  | COC(=O)Nc1ccc(Cl)c(-c2nc3cc(C)ccc3n2C)c1
54 | inactive | > 5000 |  |  |  | Cc1ccc2oc(-c3cc(NC=O)ccc3Cl)nc2c1
55 | inactive | 1000 |  |  |  | COC(=O)Nc1ccc(Cl)c(-c2nc3cc(C)ccc3o2)c1
56 | inactive | 27 |  |  |  | N#CCC(=O)Nc1ccc(Cl)c(-c2nc3cc(Cl)ccc3o2)c1
57 | inactive |  |  |  |  | COC(=O)Nc1ccc(Cl)c(-c2nc3cc(Cl)ccc3o2)c1
58 | inactive | 70 |  |  |  | Cc1ccc(NC(=O)CC#N)cc1-c1nc2ccccc2s1
59 | inactive | 100 |  |  |  | C#CCNC(=O)Nc1ccc(Cl)c(-c2nc3cc(Cl)ccc3o2)c1
60 | inactive | 64000 |  |  |  | COC(=O)Nc1ccc(Cl)c(-c2nc3cc(-c4ccccc4)ccc3o2)c1
61 | inactive | 1500 |  |  |  | CCOC(=O)Nc1ccc(Cl)c(-c2nc3cc(C)ccc3o2)c1
62 | inactive | > 64000 |  |  |  | COC(=O)Nc1ccc(Cl)c(-c2nc3ccc(C)cc3s2)c1
63 | inactive | 1400 |  |  |  | C=CCOC(=O)Nc1ccc(Cl)c(-c2nc3cc(C)ccc3o2)c1
64 | inactive |  |  |  |  | COC(=O)Nc1ccc(Cl)c(-c2nc3cc(Cl)ccc3s2)c1
